28 molecules from US10968203B2, “Pyrimidinyl-pyridyloxy-naphthyl compounds and methods of treating IRE1-related diseases and disorders” (Genentech, Inc., priority 2017, dated 2021) can be followed below.

In the test the test system is XBP1s-luc 293 LUC. In words: cellular PD assay, XBP1s-LUC reporter (Example 903). The format is cell-based. Conditions: read-out: XBP1s-luc 293 LUC (IC50). The essentials:
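Cellular IRE1α pathway activity was quantified from the luciferase signal of an XBP1-Luc reporter, where the luciferase fusion is in frame and expressed only from the spliced XBP1 transcript.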

pIC50: −log10 of the molar value. Structures can show the parent of a compound that is named as a salt. Where two headings read alike, the source gives them in different places.

One may read the pIC50 as the IC50 on a negative log10 scale, so that one unit is a factor of ten. On to `Cc1ccc2c(NS(=O)(=O)CCCF)cccc2c1Oc1ncccc1-c1ccnc(N[C@H]2CCCNC2)n1` [Example 118, (S)-3-Fluoro-N-(6-methyl-5-((3-(2-(piperidin-3-ylamino)pyrimidin-4-yl)pyridin-2-yl)oxy)naphthalen-1-yl)propane-1-sulfonamide hydrochloride], for which, where the note is “Table 1”, the pIC50 is 6.49.
As for `Cc1ccc2c(NS(=O)(=O)CC(C)C)cccc2c1Oc1ncccc1-c1ccnc(N[C@H]2CCCNC2)n1` [Example 121, (S)-2-Methyl-N-(6-methyl-5-((3-(2-(piperidin-3-ylamino)pyrimidin-4-yl)pyridin-2-yl)oxy)naphthalen-1-yl)propane-1-sulfonamide hydrochloride], for the setting “Table 1”, the pIC50 is 6.99.
As to `Cc1ccc2c(NS(=O)(=O)Cc3ccccc3C#N)cccc2c1Oc1ncccc1-c1ccnc(N[C@H]2CCCNC2)n1` [Example 146, (S)-1-(2-Cyanophenyl)-N-(6-methyl-5-((3-(2-(piperidin-3-ylamino)pyrimidin-4-yl)pyridin-2-yl)oxy)naphthalen-1-yl)methanesulfonamide], for the setting “Table 1”, the pIC50 was 7.74.
As to `Cc1ccc2c(NS(=O)(=O)Cc3ccncc3)cccc2c1Oc1ncccc1-c1ccnc(N[C@H]2CCCNC2)n1` [Example 167, (S)—N-(6-Methyl-5-((3-(2-(piperidin-3-ylamino)pyrimidin-4-yl)pyridin-2-yl)oxy)naphthalen-1-yl)-1-(pyridin-4-yl)methanesulfonamide], under “Table 1”, the pIC50 was 7.72.
As to `Cc1ccc2c(NS(=O)(=O)CC(F)(F)C(F)(F)F)c(F)ccc2c1Oc1ncccc1-c1ccnc(N[C@H]2CCCNC2)n1` [Example 439, (S)-2,2,3,3,3-Pentafluoro-N-(2-fluoro-6-methyl-5-((3-(2-(piperidin-3-ylamino)pyrimidin-4-yl)pyridin-2-yl)oxy)naphthalen-1-yl)propane-1-sulfonamide hydrochloride], the pIC50 (Table 2) is 6.81.
Consider `Cc1ccc2c(NC(=O)[C@H]3CC3(C)C)cccc2c1Oc1ncccc1-c1ccnc(N[C@H]2CCCNC2)n1` (single isomer, unassigned) [Example 288], for which the pIC50 (Table 1) is 6.73.
For `Cc1ccc2c(NC(=O)C3(C)CC3)cccc2c1Oc1ncccc1-c1ccnc(N[C@@H]2CNC[C@H](C)C2)n1` [Example 368, 1-Methyl-N-(6-methyl-5-((3-(2-(((3S,5R)-5-methylpiperidin-3-yl)amino)pyrimidin-4-yl)pyridin-2-yl)oxy)naphthalen-1-yl)cyclopropanecarboxamide], the pIC50 (Table 1) was 6.67.
Turning to `Cc1ccc2c(NS(=O)(=O)C(C)C)cccc2c1Oc1ncccc1-c1ccnc(N[C@H]2CCCNC2)n1` [Example 106, (S)—N-(6-Methyl-5-((3-(2-(piperidin-3-ylamino)pyrimidin-4-yl)pyridin-2-yl)oxy)naphthalen-1-yl) methylethylsulfonamide hydrochloride], the pIC50 (Table 1) was 6.46.
Regarding `Cc1ccc2c(NS(=O)(=O)CC(F)(F)F)c(F)ccc2c1Oc1ncccc1-c1ccnc(N[C@@H]2CNC[C@H](C)C2)n1` [Example 375, 2,2,2-Trifluoro-N-(2-fluoro-6-methyl-5-((3-(2-(((3S,5R)-5-methylpiperidin-3-yl)amino)pyrimidin-4-yl)pyridin-2-yl)oxy)naphthalen-1-yl)ethanesulfonamide], the pIC50 (Table 1) is 7.88.
Take `Cc1ccc2c(NS(=O)(=O)Cc3ccc(C(F)F)cc3)c(F)ccc2c1Oc1ncccc1-c1ccnc(N[C@H]2CCCNC2)n1` [Example 438, (S)-1-(4-(Difluoromethyl)phenyl)-N-(2-fluoro-6-methyl-5-((3-(2-(piperidin-3-ylamino)pyrimidin-4-yl)pyridin-2-yl)oxy)naphthalen-1-yl)methanesulfonamide hydrochloride]: the pIC50 (Table 2) was 8.30.
`Cc1ccc2c(NC(=O)C3CC3)cccc2c1Oc1ncccc1-c1ccnc(N[C@H]2CCCNC2)n1` [Example 337, (S)—N-(6-Methyl-5-((3-(2-(piperidin-3-ylamino)pyrimidin-4-yl)pyridin-2-yl)oxy)naphthalen-1-yl)cyclopropanecarboxamide hydrochloride]: the pIC50 (Table 1) is 7.07.
Take `CCCS(=O)(=O)Nc1c(Cl)ccc2c(Oc3ncccc3-c3ccnc(N[C@H]4CCCNC4)n3)c(C)ccc12` [Example 370, (S)—N-(2-Chloro-6-methyl-5-((3-(2-(piperidin-3-ylamino)pyrimidin-4-yl)pyridin-2-yl)oxy)naphthalen-1-yl)propane-1-sulfonamide]: where the note is “Table 1”, the pIC50 was 7.56.
Turning to `Cc1ccc2c(NCCC3CC3)cccc2c1Oc1ncccc1-c1ccnc(N[C@H]2CCCNC2)n1` [Example 224, (S)-4-(2-((5-((2-Cyclopropylethyl)amino)-2-methylnaphthalen-1-yl)oxy)pyridin-3-yl)-N-(piperidin-3-yl)pyrimidin-2-amine], the pIC50 (Table 1) was 6.75.
On the same count and under the same terms, the value for `Cc1ccc2c(NS(=O)(=O)Cc3ccccc3CF)cccc2c1Oc1ncccc1-c1ccnc(N[C@H]2CCCNC2)n1` [Example 170, (S)-1-(2-(Fluoromethyl)phenyl)-N-(6-methyl-5-((3-(2-(piperidin-3-ylamino)pyrimidin-4-yl)pyridin-2-yl)oxy)naphthalen-1-yl)methanesulfonamide] was 7.82; that for `CC[C@@H](O)CNc1cccc2c(Oc3ncccc3-c3ccnc(N[C@H]4CCCNC4)n3)c(C)ccc12` [Example 312, (R)-1-((6-Methyl-5-((3-(2-((S)-piperidin-3-ylamino)pyrimidin-4-yl)pyridin-2-yl)oxy)naphthalen-1-yl)amino)butan-2-ol] was 7.56.
In the case of `COCCS(=O)(=O)Nc1c(F)ccc2c(Oc3ncccc3-c3ccnc(N[C@@H]4CNC[C@H](C)C4)n3)c(C)ccc12` [Example 431, N-[2-Fluoro-6-methyl-5-[[3-[2-[[(3S,5R)-5-methyl-3-piperidyl]amino]pyrimidin-4-yl]-2-pyridyl]oxy]-1-naphthyl]-2-methoxy-ethanesulfonamide hydrochloride], the pIC50 (Table 2) is 7.47.
For the molecule `Cc1ccc2c(NC[C@@H](O)C(F)(F)F)cccc2c1Oc1ncccc1-c1ccnc(N[C@H]2CCCNC2)n1` [Example 298, (R)-1,1,1-Trifluoro-3-((6-methyl-5-((3-(2-((S)-piperidin-3-ylamino)pyrimidin-4-yl)pyridin-2-yl)oxy)naphthalen-1-yl)amino)propan-2-ol], the negative logarithm of the IC50 (pIC50) (Table 1) is 7.17.
On to `CCC1CCC(=O)N1c1cccc2c(Oc3ncccc3-c3ccnc(N[C@H]4CCCNC4)n3)c(C)ccc12` (single isomer, unassigned) [Example 357], for which the pIC50 (Table 1) was 6.59.
`Cc1ccc2c(NS(=O)(=O)N(C)C)cccc2c1Oc1ncccc1-c1ccnc(N[C@H]2CCCNC2)n1` [Example 109, 4-[2-[[5-(Dimethylsulfamoylamino)-2-methyl-1-naphthyl]oxy]-3-pyridyl]-2-[[(3S)-3-piperidyl]amino]pyrimidine hydrochloride]: the pIC50 (Table 1) is 6.65.
Take `Cc1ccc2c(NCC[C@H](C)O)cccc2c1Oc1ncccc1-c1ccnc(N[C@H]2CCCNC2)n1` (single isomer, unassigned) [Example 202]: under “Table 1”, the pIC50 was 6.91.
Consider `Cc1ccc2c(NS(=O)(=O)Cc3ccccc3C(F)(F)F)cccc2c1Oc1ncccc1-c1ccnc(N[C@H]2CCCNC2)n1` [Example 142, (S)—N-(6-Methyl-5-((3-(2-(piperidin-3-ylamino)pyrimidin-4-yl)pyridin-2-yl)oxy)naphthalen-1-yl)-1-(2-(trifluoromethyl)phenyl)methanesulfonamide], for which, for the setting “Table 1”, the pIC50 was 8.10.
With `Cc1ccc2c(NS(=O)(=O)CC3(F)CC3)c(F)ccc2c1Oc1ncccc1-c1ccnc(N[C@H]2CCCNC2)n1` [Example 453, (S)—N-(2-Fluoro-6-methyl-5-((3-(2-(piperidin-3-ylamino)pyrimidin-4-yl)pyridin-2-yl)oxy)naphthalen-1-yl)-1-(1-fluorocyclopropyl)methanesulfonamide hydrochloride], the pIC50 (Table 2) was 7.74.
On to `Cc1ccc2c(NC(=O)/C=C/C(F)(F)F)cccc2c1Oc1ncccc1-c1ccnc(N[C@H]2CCCNC2)n1` [Example 407, (S)-4,4,4-Trifluoro-N-(6-methyl-5-((3-(2-(piperidin-3-ylamino)pyrimidin-4-yl)pyridin-2-yl)oxy)naphthalen-1-yl)but-2-enamide], for which the pIC50 (Table 2) is 6.66.
For `Cc1ccc2c(NS(=O)(=O)CC3CC3(F)F)c(F)ccc2c1Oc1ncccc1-c1ccnc(N[C@H]2CCCNC2)n1` (mixture of isomers) [Example 467, 1-(2,2-Difluorocyclopropyl)-N-(2-fluoro-6-methyl-5-((3-(2-((S)-piperidin-3-ylamino)pyrimidin-4-yl)pyridin-2-yl)oxy)naphthalen-1-yl)methanesulfonamide hydrochloride], for the setting “Table 2”, the pIC50 was 7.38.
`Cc1ccc2c(NC(=O)CC3CCCCC3)c(F)ccc2c1Oc1ncccc1-c1ccnc(N[C@H]2CCCNC2)n1` [Example 364, (S)-2-Cyclohexyl-N-(2-fluoro-6-methyl-5-((3-(2-(piperidin-3-ylamino)pyrimidin-4-yl)pyridin-2-yl)oxy)naphthalen-1-yl)acetamide]: under “Table 1”, the pIC50 is 6.67.
As to `Cc1ccc2c(NC(=O)C3CC34CCOC4)cccc2c1Oc1ncccc1-c1ccnc(N[C@H]2CCCNC2)n1` (mixture of isomers) [Example 289, N-(6-Methyl-5-((3-(2-(((S)-piperidin-3-yl)amino)pyrimidin-4-yl)pyridin-2-yl)oxy)naphthalen-1-yl)-5-oxaspiro[2.4]heptane-1-carboxamide], the pIC50 (Table 1) is 6.37.
For the molecule `Cc1ccc2c(NS(=O)(=O)CCC(F)F)c(F)ccc2c1Oc1ncccc1-c1ccnc(N[C@H]2CCCNC2)n1` [Example 398, (S)-3,3-Difluoro-N-(2-fluoro-6-methyl-5-((3-(2-(piperidin-3-ylamino)pyrimidin-4-yl)pyridin-2-yl)oxy)naphthalen-1-yl)propane-1-sulfonamide hydrochloride], the pIC50 (Table 2) is 7.66.
Regarding `C=CS(=O)(=O)Nc1cccc2c(Oc3ncccc3-c3ccnc(N[C@H]4CCCNC4)n3)c(C)ccc12` [Example 147, (S)—N-(6-Methyl-5-((3-(2-(piperidin-3-ylamino)pyrimidin-4-yl)pyridin-2-yl)oxy)naphthalen-1-yl)ethenesulfonamide], for the setting “Table 1”, the pIC50 is 6.86.
